Source: PubChem BioAssay AID588599 (Sanford-Burnham Center for Chemical Genomics, 2011)

The compounds below were run against Caspase-3 (Homo sapiens) (UniProt P42574) (assay: caspase-3 inhibitors as off-family protease, SAR follow-up, selectivity assay for SENP protease inhibitor project, biochemical, luminescence, set 2 (AID 588599)). Settings: recombinant caspase-3, Z-DEVD-aminoluciferin luminescence, 60 min.
Caspase-3 (Homo sapiens), sequence (P42574 28-227 limits assumed): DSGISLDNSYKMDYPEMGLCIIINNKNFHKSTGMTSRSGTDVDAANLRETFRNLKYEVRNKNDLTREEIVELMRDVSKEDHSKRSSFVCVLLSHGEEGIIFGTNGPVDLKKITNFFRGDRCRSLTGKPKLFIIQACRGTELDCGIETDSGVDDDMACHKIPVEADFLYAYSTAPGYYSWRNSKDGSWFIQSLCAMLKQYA

IC50 [µM] | SMILES
0.515 | O=C(Nc1nc2ccccc2s1)c1cc2ccccc2s1
1.11 | CCCCc1ccc2nc(NC(=O)c3sccc3Cl)sc2c1
10.6 | Cc1cccc(-c2noc(/C=C/c3ccccc3)n2)c1
23.9 | Fc1ccc(/C=C/c2noc(-c3ccccc3I)n2)cc1
